The values that follow come from US7361682B2, “Indole derivatives as H3 inverse agonists” (Hoffmann-La Roche Inc., priority 2004, dated 2008).

For orientation: pKi means the negative decadic logarithm of the Ki, by convention in mol/L.

pKi: −log10 of the molar value.

The target in the experiment is T1, histamine 3 receptor (H3R) (Homo sapiens, UniProt Q9Y5N1).
T1 construct: expressed in transfected cells; host or cells: CHO cells
T1 sequence (Q9Y5N1 whole entry): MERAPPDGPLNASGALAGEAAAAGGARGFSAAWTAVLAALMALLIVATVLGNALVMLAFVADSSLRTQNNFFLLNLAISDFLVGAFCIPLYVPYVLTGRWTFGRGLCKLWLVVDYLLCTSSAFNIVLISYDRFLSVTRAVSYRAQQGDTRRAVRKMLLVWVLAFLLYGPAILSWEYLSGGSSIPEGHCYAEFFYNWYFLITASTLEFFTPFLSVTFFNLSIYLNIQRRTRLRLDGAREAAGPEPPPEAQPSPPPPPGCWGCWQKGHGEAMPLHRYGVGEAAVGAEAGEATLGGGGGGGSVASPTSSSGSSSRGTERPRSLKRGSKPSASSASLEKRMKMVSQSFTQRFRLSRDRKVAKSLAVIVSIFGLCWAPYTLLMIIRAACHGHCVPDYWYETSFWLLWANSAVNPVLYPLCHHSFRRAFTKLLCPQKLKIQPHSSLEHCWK
The experiment in a line: Binding assay with 3H-(R)α-methylhistamine (competition binding, membranes of human HR3-CHO cell line). The settings on record: competition against 3H(R)α-Methylhistamine (1 nM), membrane of the human HR3-CHO cell line; Ki calculated from IC50 by Cheng-Prusoff equation. As for the experimental part:
Binding assay with ^3H-(R)α-methylhistamine
Saturation binding experiments were performed using HR^3—CHO membranes prepared as described in Takahashi, K, Tokita, S., Kotani, H. (2003) J. Pharmacol. Exp. Therapeutics 307, 213-218.
An appropriate amount of membrane (60 to 80 μg protein/well) was incubated with increasing concentrations of ^3H(R)α-Methylhistamine di-hydrochloride (0.10 to 10 nM). Non specific binding was determined using a 200 fold excess of cold (R)α-Methylhistamine dihydrobromide (500 nM final concentration). The incubation was carried out at room temperature (in deep-well plates shaking for three hours). The final volume in each well was 250 μl. The incubation was followed by rapid filtration on GF/B filters (pre-soaked with 100 μl of 0.5% PEI in Tris 50 mM shaking at 200 rpm for two hours). The filtration was made using a cell-harvester and the filter plates were then washed five times with ice cold washing buffer containing 0.5 M NaCl. After harvesting, the plates were dried at 55° C. for 60 min, then we added scintillation fluid (Microscint 40, 40 microl in each well) and the amount of radioactivity on the filter was determined in Packard top-counter after shaking the plates for two hours at 200 rpm at room temperature.
Binding Buffer: 50 mM Tris-HCl pH 7.4 and 5 mM MgCl2×6H2O pH 7.4. Washing Buffer: 50 mM Tris-HCl pH 7.4 and 5 mM MgCl2×6H2O and 0.5 M NaCl pH 7.4.
Indirect measurement of affinity of H3R inverse agonists: twelve increasing concentrations (ranging from 10 μM to 0.3 nM) of the selected compounds were always tested in competition binding experiments using membrane of the human HR3—CHO cell line. An appropriate amount of protein, e.g. approximately 500 cpm binding of RAMH at Kd, were incubated for 1 hour at room temperature in 250 μl final volume in 96-well plates in presence of ^3H(R)α-Methylhistamine (1 nM final concentration=Kd). […]
All compounds were tested at a single concentration in duplicates. […] Ki's were calculated from IC50 based on Cheng-Prusoff equation (Cheng, Y, Prusoff, W H (1973) Biochem Pharmacol 22, 3099-3108).
Turning to `CC(C)N1CCC(Oc2ccc3[nH]c(C(=O)N4CCOCC4)cc3c2)C1` (stereo not drawn) [Example 2, [5-(1-Isopropyl-pyrrolidin-3-yloxy)-1H-indol-2-yl]-morpholin-4-yl-methanone], the pKi is 7.64.
For `CC(C)N1CCN(C(=O)c2cc3cc(OCCC4CCCN4C)ccc3[nH]2)CC1` (stereo not drawn) [Example 117, (4-Isopropyl-piperazin-1-yl)-{5-[2-(1-methyl-pyrrolidin-2-yl)-ethoxy]-1H-indol-2-yl}-methanone] the value was 7.11.
For `CC(C)N1CCC(Oc2ccc3cc(C(=O)N4CCSCC4)[nH]c3c2)CC1` [Example 140, [6-(1-isopropyl-piperidin-4-yloxy)-1H-indol-2-yl]-thiomorpholin-4-yl-methanone] the value was 7.03.
